Data: patent publication US6962924B2, “Salt and polymorphs of desloratadine hemifumarate” (priority 2002, dated 2005)

Key:
[1] = Hygroscopicity (moisture absorption) in DVS; type: physicochemical; settings: relative humidity (RH) of 90%
[2] = mixed with three volumes of lactose monohydrate, 40° C. and 75% RH, one week
[3] = Stability of the polymorphic form (vacuum at 50° C., crushing); type: physicochemical

SMILES | moisture absorption value ([1]; listed as Desloratadine hemifumarate polymorphic form 2) | Appearance after stress storage (color, crystallinity, texture) [2] | moisture absorption value ([1]; listed as desloratadine polymorphic form 1) | Change of polymorphic form under vacuum at 50° C. [3] | moisture absorption value [1]
Clc1ccc2c(c1)CCc1cccnc1C2=C1CCNCC1.Clc1ccc2c(c1)CCc1cccnc1C2=C1CCNCC1.O=C(O)C=CC(=O)O [Desloratadine hemifumarate (polymorph 2), Descarbonylethoxyloratadine Hemifumarate] | 0.3% | retained its crystallinity, color and the texture | – | – | –
Clc1ccc2c(c1)CCc1cccnc1C2=C1CCNCC1.Clc1ccc2c(c1)CCc1cccnc1C2=C1CCNCC1.O=C(O)C=CC(=O)O [Desloratadine hemifumarate (polymorph 1), Descarbonylethoxyloratadine Hemifumarate] | – | retained its crystallinity, color and the texture | 0.9% | can be changed to polymorphic form 2 | –
Clc1ccc2c(c1)CCc1cccnc1C2=C1CCNCC1 [Standard desloratadine, 8-chloro-6,11-dihydro-11-(4-piperidylidene)-5H-benzo[5,6]-cyclohepta[1,2-b]pyridine, reference compound] | – | showed discoloration | – | – | 0.3%
